Reference: BindingDB's records for doi:10.1016/s0960-894x(98)00709-4 (Dupont Pharmaceuticals, 1999)

Columns and labels:
[1] = Inhibition of platelet aggregation in heparin treated human platelet rich plasma (PRP)
[2] = Inhibition of platelet aggregation in citreated human platelet rich plasma (PRP)

**Q.** Which IC50 [1] does the source give for `N=C(N)c1ccc(C2=NOC(CC(=O)NCCC(=O)O)C2)cc1` (centres undefined) here?
**A.** Its IC50 is 0.56 µM.

**Q.** Which IC50 [1] does the source give for `[H]/N=C(/N)c1ccc(C2=NO[C@@H](CC(=O)NC[C@H](NC(=O)OCCCC)C(=O)O)C2)cc1` here?
**A.** The IC50 was 0.066 µM.

**Q.** For `C=CCOP(=O)(NC(CNC(=O)CC1CC(c2ccc(C(=N)N)cc2)=NO1)C(=O)O)OCC=C` (centres undefined) [2-(Bis-allyloxy-phosphorylamino)-3-{2-[3-(4-carbamimidoyl-phenyl)-4,5-dihydro-isoxazol-5-yl]-acetylamino}-propionic acid], which IC50 [2] is on record?
**A.** The IC50 was 0.122 µM.

**Q.** And the IC50 [1]?
**A.** Its IC50 is 0.224 µM.

**Q.** Which IC50 [2] does the source give for `CCCCOP(=O)(NC(CNC(=O)CC1CC(c2ccc(C(=N)N)cc2)=NO1)C(=O)O)OCCCC` (centres undefined) [3-{2-[3-(4-Carbamimidoyl-phenyl)-4,5-dihydro-isoxazol-5-yl]-acetylamino}-2-(dibutoxy-phosphorylamino)-propionic acid] here?
**A.** Its IC50 is 0.114 µM.

**Q.** And the IC50 [1]?
**A.** Its IC50 is 0.221 µM.

**Q.** Which IC50 [2] does the source give for `CCOP(=O)(NC(CNC(=O)CC1CC(c2ccc(C(=N)N)cc2)=NO1)C(=O)O)OCC` (centres undefined) [3-{2-[3-(4-Carbamimidoyl-phenyl)-4,5-dihydro-isoxazol-5-yl]-acetylamino}-2-(diethoxy-phosphorylamino)-propionic acid] here?
**A.** Its IC50 is 0.117 µM.

**Q.** What about the IC50 [1] of the same compound?
**A.** Its IC50 is 0.24 µM.

**Q.** Which results are given for `CC(C)OP(=O)(NC(CNC(=O)CC1CC(c2ccc(C(=N)N)cc2)=NO1)C(=O)O)OC(C)C` (centres undefined) [3-{2-[3-(4-Carbamimidoyl-phenyl)-4,5-dihydro-isoxazol-5-yl]-acetylamino}-2-(diisopropoxy-phosphorylamino)-propionic acid]?
**A.** IC50 [2]: 0.103 µM; IC50 [1]: 0.21 µM

**Q.** Which IC50 [2] does the source give for `COP(=O)(NC(CNC(=O)CC1CC(c2ccc(C(=N)N)cc2)=NO1)C(=O)O)OC` (centres undefined) [3-{2-[3-(4-Carbamimidoyl-phenyl)-4,5-dihydro-isoxazol-5-yl]-acetylamino}-2-(dimethoxy-phosphorylamino)-propionic acid] here?
**A.** The IC50 was 0.105 µM.

**Q.** What about the IC50 [1] of the same compound?
**A.** The IC50 was 0.197 µM.

**Q.** Which IC50 [2] does the source give for `N=C(N)c1ccc(C2=NOC(CC(=O)NCC(NP(=O)(O)O)C(=O)O)C2)cc1` (centres undefined) [3-{2-[3-(4-Carbamimidoyl-phenyl)-4,5-dihydro-isoxazol-5-yl]-acetylamino}-2-phosphonoamino-propionic acid] here?
**A.** The IC50 was 0.26 µM.

**Q.** And the IC50 [1]?
**A.** The IC50 was 0.376 µM.
